Reference: the OPERA property sets (Mansouri et al. 2018)

conditions: not given

Structure (SMILES)	boiling point	log10 vapour pressure (mmHg)	melting point	ready biodegradability	log10 Koc (L/kg)	log10 Koa	log10 Henry constant (atm·m³/mol)	log10 biodegradation half-life (days)
Cc1nc2ccccc2s1	238 °C	-1.52	14 °C	–	–	–	–	–
CC(=O)c1cccs1	214 °C	–	10.5 °C	–	–	–	–	–
O=[N+]([O-])c1ccc(Cl)cc1Cl	258 °C	–	34 °C	not readily biodegradable	–	–	–	–
c1ccc(CCCc2ccncc2)cc1	322 °C	–	–	–	–	–	–	–
O=C(C(Br)Br)C(Br)(Br)Br	–	–	79.5 °C	–	–	–	–	–
CCc1ccco1	92 °C	–	–	–	–	–	–	–
C=CC(O)CO (centres undefined)	196 °C	–	–	–	–	–	–	–
O=C(C=NO)c1ccccc1	–	–	129 °C	–	–	–	–	–
CCC(C)(C)c1ccc(O)cc1	262 °C	-2.7	95 °C	–	–	–	–	–
CCOC(OCC)OCC	143 °C	0.587	–	–	–	–	–	–
O=S(=O)(O)c1cccc(S(=O)(=O)O)c1	–	–	–	not readily biodegradable	–	–	–	–
CCCCOc1ccc(O)cc1	–	–	65.5 °C	–	–	–	–	–
C[Si](C)(C)Cc1ccccc1	190 °C	–	–	–	–	–	–	–
Cc1[nH]c(=O)n(C(C)(C)C)c(=O)c1Cl	–	-6.33	176 °C	not readily biodegradable	1.66	–	–	–
CN(C)CN(C)C	83 °C	–	–	–	–	–	–	–
C[C@]12CC[C@H](O)C[C@H]1CC[C@@H]1[C@@H]2C[C@@H](O)[C@]2(C)[C@@H](C3=CC(=O)OC3)CC[C@]12O	–	–	222 °C	–	–	–	–	–
O=C1OC(=O)C(F)(F)C(F)(F)C1(F)F	72 °C	–	–	–	–	–	–	–
CC(C)C=CCO	159 °C	–	–	–	–	–	–	–
C#CCCCCCC#C	162 °C	–	-27.3 °C	–	–	–	–	–
CC(=O)Oc1c[nH]c2ccccc12	–	–	129 °C	–	–	–	–	–
COCC1CO1 (centres undefined)	113 °C	–	–	–	–	–	–	–
C=C1CC[C@H](O)C/C1=C/C=C1\CCC[C@]2(C)[C@@H]([C@H](C)/C=C/[C@H](C)C(C)C)CC[C@@H]12	–	–	116 °C	–	–	–	–	–

Structure (SMILES)	boiling point	log10 vapour pressure (mmHg)	melting point	ready biodegradability	log10 Koc (L/kg)	log10 Koa	log10 Henry constant (atm·m³/mol)	log10 biodegradation half-life (days)
CCCCCCC(O)CCCCCCCCCCC(=O)O (centres undefined)	–	–	–	readily biodegradable	–	–	–	–
CNC(=O)CSP(=O)(OC)OC	–	-4.61	-28 °C	–	–	–	–	–
Nc1ccc2c(c1)CCC2	248 °C	–	37.5 °C	–	–	–	–	–
Br.CCNCC	–	–	219 °C	–	–	–	–	–
CCCCCCCCCCCCCCCC(OC)OC	–	–	10 °C	–	–	–	–	–
C/C=C/CCCCCCCC	194 °C	–	-57.4 °C	–	–	–	–	–
COc1cc(-c2coc3cc(O)c(OC)c(O)c3c2=O)cc(O)c1OC	–	–	185 °C	–	–	–	–	–
CCCCn1c(=O)c2c(ncn2C)n(C)c1=O	–	–	108 °C	–	–	–	–	–
O=CC=Cc1ccc([N+](=O)[O-])cc1	–	–	142 °C	–	–	–	–	–
CCc1cc(C)cc(CC)c1	205 °C	0.0017	-74.1 °C	–	–	–	–	–
CCCCCCCCCC#N	243 °C	–	-17.9 °C	–	–	–	–	–
CCCCC(C)O (centres undefined)	136 °C	0.396	–	not readily biodegradable	–	–	–	–
CCCCCCCCCC=CC(=O)O	–	–	17.1 °C	–	–	–	–	–
COC(=O)[C@H]1[C@H]2C[C@@H]3c4[nH]c5cc(OC)ccc5c4CCN3C[C@H]2C[C@@H](OC(=O)c2cc(OC)c(OC)c(OC)c2)[C@@H]1OC	–	–	264 °C	–	–	–	–	–
Cc1ncc(CO)c(CO)c1O.Cl	–	–	207 °C	–	–	–	–	–
Clc1ccc(Oc2c(Cl)cccc2Cl)cc1	–	-3.66	–	–	–	–	–	–
BrC1CCC(Br)C(Br)CCC1Br (centres undefined)	–	–	–	not readily biodegradable	–	–	–	–
CCCCCCCCCCCCCCCCCC(=O)Cl	–	–	23 °C	–	–	–	–	–
Cc1ccsc1C	142 °C	–	-49 °C	–	–	–	–	–
Clc1ccc(-c2cc(Cl)c(Cl)c(Cl)c2)cc1Cl	–	–	–	–	–	10.3	–	–
O=C1c2ccccc2C(=O)c2c(O)ccc(O)c21	–	-7.61	200 °C	–	–	–	–	–
C[C@H](O)CCCO	202 °C	–	–	–	–	–	–	–

Structure (SMILES)	boiling point	log10 vapour pressure (mmHg)	melting point	ready biodegradability	log10 Koc (L/kg)	log10 Koa	log10 Henry constant (atm·m³/mol)	log10 biodegradation half-life (days)
N#Cc1cccc(C(=O)O)c1	–	–	219 °C	–	–	–	–	–
COc1ccc(C(N)=O)cc1OC	–	–	164 °C	–	–	–	–	–
O=C(O)c1cccc([N+](=O)[O-])c1Cl	–	–	184 °C	–	–	–	–	–
Cc1ccc(NC2=NCCN2)c(Cl)c1	–	–	149 °C	–	–	–	–	–
Clc1ccc(C/C(=C\CN2CCCC2)c2ccccc2)cc1	–	–	48.5 °C	–	–	–	–	–
Oc1c(Br)c(Br)c(O)c(Br)c1Br	–	–	244 °C	–	–	–	–	–
C=CCOC(=O)c1ccccc1C(=O)OCC=C	–	–	–	readily biodegradable	–	–	–	–
Fc1cccc(F)c1	82.6 °C	1.92	-69 °C	–	–	–	–	–
Clc1cccc2[nH]nnc12	–	–	–	–	1.98	–	–	–
CCCCCCCCCCC/C=C\CCCCC(=O)O	–	–	29.8 °C	–	–	–	–	–
CCOC(=O)Nc1ccc2c(c1)N(C(=O)CCN1CCOCC1)c1ccccc1S2	–	–	156 °C	–	–	–	–	–
CN(C)[Si](C)(C)C	86 °C	–	–	–	–	–	–	–
CC(CCc1ccccc1)NCC(O)c1ccc(O)c(C(N)=O)c1 (centres undefined)	–	–	188 °C	–	–	–	–	–
Nc1cccc2cccc(S(=O)(=O)O)c12	–	–	–	not readily biodegradable	–	–	–	–
CC12CCC(C1)C(C)(C)C2O (centres undefined)	–	-1.2	–	–	–	–	–	–
CCCCCCCCS	199 °C	-0.372	-49.2 °C	–	–	–	–	–
CN(C)c1ccc(C(=O)c2ccccc2)cc1	–	–	92.5 °C	–	–	–	–	–
c1ccc2c(c1)cc1ccc3cccc4ccc2c1c34	495 °C	-8.26	176 °C	–	5.95	–	-6.34	2.35
CCCCCCCCCCCCCCCC	287 °C	-2.84	18.1 °C	not readily biodegradable	–	–	–	1.23
NC(=S)Nc1ccccc1	–	–	154 °C	–	–	–	–	–
CC1(C)O[C@@H]2C[C@H]3[C@@H]4CCC5=CC(=O)C=C[C@]5(C)[C@H]4[C@@H](O)C[C@]3(C)[C@]2(C(=O)CO)O1	–	–	274 °C	–	–	–	–	–
CCCCCCCCCCCCBr	276 °C	-2.41	-9.5 °C	–	–	–	–	–

Structure (SMILES)	boiling point	log10 vapour pressure (mmHg)	melting point	ready biodegradability	log10 Koc (L/kg)	log10 Koa	log10 Henry constant (atm·m³/mol)	log10 biodegradation half-life (days)
CC(c1c(O)c2ccccc2oc1=O)c1c(O)c2ccccc2oc1=O	–	–	178 °C	–	–	–	–	–
CCC(C)CCC(C)(C)C (centres undefined)	151 °C	–	–	–	–	–	–	–
CC1(N)CCC(C(C)(C)N)CC1 (centres undefined)	–	–	-45 °C	–	–	–	–	–
CCOC(=O)C(C)(C)C(C)=O	182 °C	–	–	–	–	–	–	–
FC(F)(F)C(F)(F)C(F)(F)C(F)(F)C(F)(F)C(F)(F)C(F)(F)C(F)(F)I	160 °C	–	20.8 °C	–	–	–	–	–
CC(=O)c1ccc(F)cc1	196 °C	–	–	–	–	–	–	–
CC(C)C(=O)OCC(C)(C)C(O)C(C)C (centres undefined)	–	–	–	readily biodegradable	–	–	–	–
CCCCc1ccc(C=O)cc1	–	–	–	not readily biodegradable	–	–	–	–
ON=C(C1CC1)C1CC1	–	–	76.5 °C	–	–	–	–	–
N#Cc1cccs1	192 °C	–	–	–	–	–	–	–
CCN(Cc1ccc(Cl)nc1)/C(=C/[N+](=O)[O-])NC	–	-11.1	–	–	–	–	–	–
CCCCOC(=O)C(C)Oc1ccc(Oc2ccc(C(F)(F)F)cn2)cc1 (centres undefined)	–	-6.5	9 °C	–	3.62	–	–	–
C=CCc1cccc(C)c1O	232 °C	–	–	–	–	–	–	–
Cc1ccn(-c2ccccc2)n1	255 °C	–	37 °C	–	–	–	–	–
CC(C)=CCC[C@@H](C)[C@H]1CC[C@@]2(C)C3=C(CC[C@]12C)[C@@]1(C)CC[C@H](O)C(C)(C)[C@@H]1CC3	–	–	140 °C	–	–	–	–	–
C[C@H]1CC[C@@H]2[C@H](C1)C2(C)C	169 °C	–	–	–	–	–	–	–
CC(C=O)=Cc1ccccc1	252 °C	-1.82	–	–	–	–	–	–
C1CC2CCCC(C1)C2	170 °C	–	146 °C	–	–	–	–	–
CC12CCC(CC1)C2(C)C	161 °C	–	158 °C	–	–	–	–	–
CC(C)=C1CC[C@@H](C)CC1=O	224 °C	-0.91	–	–	–	–	–	–
CC(C)Nc1ccccc1	203 °C	–	-10 °C	–	–	–	–	–
c1ccc(OCc2ccc(CCCN3CCOCC3)cc2)cc1	–	–	52.5 °C	–	–	–	–	–

same assay, conditions: fish

Structure (SMILES)	log10 BCF	log10 biotransformation half-life (days)
O=[N+]([O-])c1ccc(Cl)cc1Cl	2.07	0.83
Clc1ccc(-c2cc(Cl)c(Cl)c(Cl)c2)cc1Cl	–	2.4
c1ccc2c(c1)cc1ccc3cccc4ccc2c1c34	–	0.05
CCCCCCCCCCCCCCCC	3.7	–
